Source: patent US12195427B2, “MASP-2 inhibitors and methods of use” (priority 2018, dated 2025)

Biological target: MASP-2 CCP2-SP (Homo sapiens (Human), UniProt O00187)
Experiment: MASP-2 co-crystallization, X-ray crystallography and structure analysis (H-bonds, van der Waals contacts);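 for Ligand-pharmacophore element distance, pharmacophore element C2: distance from averaged pharmacophore element to bound ligand; missing value means element absent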;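 for Ligand-pharmacophore element distance, pharmacophore element C3: distance from averaged pharmacophore element to bound ligand; missing value means element absent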;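 for Ligand-pharmacophore element distance, pharmacophore element C4: distance from averaged pharmacophore element to bound ligand; missing value means element absent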;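 for Ligand-pharmacophore element distance, pharmacophore element C5: distance from averaged pharmacophore element to bound ligand; missing value means element absent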
Parameters: van der Waals contact distance, MASP-2 HIS 483 atom CD2 / van der Waals contact distance, MASP-2 HIS 483 atom NE2 / van der Waals contact distance, SER 654 C to compound atom / van der Waals contact distance, SER 654 O to compound atom / van der Waals contact distance, TRP 655 C to compound atom / van der Waals contact distance, MASP-2 GLY 528 atom CA / van der Waals contact distance TRP 655 atom CZ3 / van der Waals contact distance TRP 655 atom N / van der Waals contact distance TRP 655 atom CE3 / van der Waals contact distance GLY 656 atom C / van der Waals contact distance GLY 656 atom CA / van der Waals contact distance GLY 656 atom O / van der Waals contact distance, MASP-2 TYR 607 atom CD1 / van der Waals contact distance, MASP-2 PRO 606 atom O / d(C3,CA1) / d(CA1,N1)2 / d(H4,O1) / d(H4,O2) / d(O1,O2) / d(CA1,O2) / d(CA6,O1) / d(CA6,O2) / d(CA1,C5) / d(O2,H3) / d(N2,C2) / d(CA5,N2) / d(N2,C4) / d(N2,C6) / d(N2,CA3) / d(N2,O3) / d(O4,H2): unit not given beside the values
Details: for Ligand-pharmacophore element distance, pharmacophore element C2 / Ligand-pharmacophore element distance, pharmacophore element C3 / Ligand-pharmacophore element distance, pharmacophore element C4 / Ligand-pharmacophore element distance, pharmacophore element C5 / Ligand-pharmacophore element distance, pharmacophore element C6 / Ligand-pharmacophore element distance, pharmacophore element C7 / Ligand-pharmacophore element distance, pharmacophore element CA1 / Ligand-pharmacophore element distance, pharmacophore element CA2 / Ligand-pharmacophore element distance, pharmacophore element CA3 / Ligand-pharmacophore element distance, pharmacophore element CA4 / Ligand-pharmacophore element distance, pharmacophore element CA5 / Ligand-pharmacophore element distance, pharmacophore element CA6: Table A4-1; for d(N2,C2) / d(N2,CA2) / d(O2,H3) / d(O2,N2): Table A5-2 pharmacophore distance, S3/S4 region
Source text: This example illustrates the preparation of recombinant MASP-2 protein, based on UniProt O00187, human mannan-binding lectin serine protease 2. Expression constructs for human MASP-2 CCP2-SP and CCP2-SP-6HIS were generated for recombinant expression in E. coli cells.
Typically, crystallization hits were obtained by screening against […] 96-well crystallization reagent kits (GRAS6, GRAS2, Hampton Research; MORPHEUS, Molecular Dimensions; Wizard 1&2 Cryo, Rigaku Reagents) and crystal growth was inspected by optical microscopy. Crystals were used directly or further optimized for X-ray diffraction. Crystals were captured with cryogenic loops and dipped into liquid nitrogen directly or cryoprotected with a 20% glycerol in crystallization formulation before flash-cooling in liquid nitrogen.
Thereafter crystals are transferred once or twice for soaking within the crystallization solution containing the MASP-2 inhibitor.
Crystals were diffracted with synchrotron X-rays of […] and X-ray diffraction datasets were collected at beamlines SSRL BL9-2, BL14-1, BL12-2 as well as ALS sector 5 using Dectris Pilatus and Eiger detectors. Structures were determined by molecular replacement using portions of the structure 1Q3X as search models and partially refined with Buster 2.10.2 or Refmac 5.8. […] When multiple ligand poses were observed, for instance arising from multiple molecules in the asymmetric unit or refined dual poses within the same molecule, only one pose was selected and analyzed.
LigPlot+ calls these ‘nonbonded contacts’ or ‘hydrophobic contacts’. Despite the name, there are atom pairings that include possible H-bonds. Thus, in some instances, the Table A2 also contains H-bond interactions.

[1] = Table A5-1 pharmacophore: distance between elements, S2/S1 region
[2] = Table A8-6, nearest protein atom in cell to the left
[3] = Table A7-1, between pharmacophore elements of the bound compound

MASP-2 CCP2-SP, sequence (O00187 445-686): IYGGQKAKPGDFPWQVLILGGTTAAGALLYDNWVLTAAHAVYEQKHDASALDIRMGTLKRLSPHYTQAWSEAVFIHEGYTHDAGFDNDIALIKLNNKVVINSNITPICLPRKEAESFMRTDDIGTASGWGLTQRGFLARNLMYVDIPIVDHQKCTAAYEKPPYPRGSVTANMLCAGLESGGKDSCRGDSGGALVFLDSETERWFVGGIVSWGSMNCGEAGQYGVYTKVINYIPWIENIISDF
MASP-2 CCP2-SP, sequence (O00187 364-432 partner): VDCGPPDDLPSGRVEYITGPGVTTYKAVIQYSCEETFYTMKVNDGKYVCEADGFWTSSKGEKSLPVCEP

## C[C@H](NC(=O)[C@H]1C[C@H](c2ccccc2)CN1)C(=O)NCc1ccc(N)nc1 [compound 1012]
Table A1 (H-Bonds), ASP 627 OD2
  H-bond distance to MASP-2 ASP 627 atom OD2: 3.18
Table A1 (H-Bonds), GLY 656 N
  H-bond distance to MASP-2 GLY 656 atom N: 3.18
Table A1 (H-Bonds), GLY 656 O
  H-bond distance to MASP-2 GLY 656 atom O: 2.77
Table A1 (H-Bonds), SER 654 O
  H-bond distance to MASP-2 SER 654 atom O: 2.93
Table A1 (H-Bonds), SER 657 O
  H-bond distance to MASP-2 SER 657 atom O: 2.89
Table A2-1
  van der Waals contact distance, MASP-2 HIS 483 atom CD2: 3.63
Table A2-3
  van der Waals contact distance, MASP-2 PHE 529 atom CE1: 3.75
  van der Waals contact distance, MASP-2 PHE 529 atom CE2: 3.78
Table A2-4
  van der Waals contact distance, MASP-2 PRO 606 atom CG: 3.85
Table A2-5: TYR 607 (CE1, CE2, OH), PRO 608 (CD, CG), SER 611 (CA)
  van der Waals contact distance, MASP-2 amino acid atom to compound atom: 3.88
Table A2-6: SER 611 (CB, OG), ASP 627 (CG, OD1, OD2), SER 628 (C, CA)
  van der Waals contact distance, MASP-2 amino acid atom to compound atom: 3.6
Table A2-7: SER 628 (CB, O, OG)
  van der Waals contact distance, MASP-2 amino acid atom to compound atom: 3.53
Table A2-9, ARG 630, AA atoms CG, CZ
  van der Waals contact distance, MASP-2 amino acid atom to compound atom: 3.83
Table A2-12
  van der Waals contact distance, TRP 655 C to compound atom: 3.8
  van der Waals contact distance, TRP 655 CA to compound atom: 3.36
Table A2-13, MASP-2 GLY 656 CA
  van der Waals contact distance GLY 656 atom CA: 3.73

## C[C@H](NC(=O)[C@H](N)CCCc1ccccc1)C(=O)NCc1ccc(C(=N)N)cc1.Cl.Cl [1042_3]
  Ligand-pharmacophore element distance, pharmacophore element C2: 2.05
  Ligand-pharmacophore element distance, pharmacophore element C3: 0
  Ligand-pharmacophore element distance, pharmacophore element C4: 0
  Ligand-pharmacophore element distance, pharmacophore element C5: 0
  Ligand-pharmacophore element distance, pharmacophore element C6: 0
  Ligand-pharmacophore element distance, pharmacophore element C7: 0
  Ligand-pharmacophore element distance, pharmacophore element CA1: 0.5
  Ligand-pharmacophore element distance, pharmacophore element CA2: 1.65
  Ligand-pharmacophore element distance, pharmacophore element CA3: 0
  Ligand-pharmacophore element distance, pharmacophore element CA4: 0
  Ligand-pharmacophore element distance, pharmacophore element CA5: 0
  Ligand-pharmacophore element distance, pharmacophore element CA6: 0
  d(N2,C2): 3.55
  d(N2,CA2): 6.60
  d(O2,H3): 6.75
  d(O2,N2): 4.11
[1]
  d(CA1,N1): 3.63
  d(CA1,O2): 4.54
  d(H4,O2): 4.90
Table A6-2 pharmacophore angle
  a(O2, N2, C2): 129.44
  a(O2, N2, CA2): 145.75
Table A8-6, 6th residue column, nearest protein atom in cell to the left
  Pharmacophore protein distance to MET_658 (first MET_658 column): 2.74
Table A8-6, 9th residue column, nearest protein atom in cell to the left
  Pharmacophore protein distance to MET_658 (second MET_658 column): 4.20
[2]
  Pharmacophore protein distance to GLY_528: 2.99
  Pharmacophore protein distance to PHE_529: 2.42
  Pharmacophore protein distance to PRO_608: 4.06
  Pharmacophore protein distance to SER_611: 2.32
Table A8-6, pharmacophore elements C6, CA3, O3, H1, nearest protein atom in cell to the left
  Pharmacophore protein distance to TRP_655: 3.21

## C[C@H](NC(=O)[C@H]1C[C@@H](c2ccccc2)CCN1)C(=O)NCc1cc(Cl)ccc1O.Cl [1078_13]
  Ligand-pharmacophore element distance, pharmacophore element C2: 0.58
  Ligand-pharmacophore element distance, pharmacophore element C3: 0
  Ligand-pharmacophore element distance, pharmacophore element C4: 0
  Ligand-pharmacophore element distance, pharmacophore element C5: 0.47
  Ligand-pharmacophore element distance, pharmacophore element C6: 0
  Ligand-pharmacophore element distance, pharmacophore element C7: 0
  Ligand-pharmacophore element distance, pharmacophore element CA1: 1.62
  Ligand-pharmacophore element distance, pharmacophore element CA2: 0.73
  Ligand-pharmacophore element distance, pharmacophore element CA3: 0
  Ligand-pharmacophore element distance, pharmacophore element CA4: 0
  Ligand-pharmacophore element distance, pharmacophore element CA5: 0
  Ligand-pharmacophore element distance, pharmacophore element CA6: 0
  d(N2,C2): 1.47
  d(N2,CA2): 5.61
  d(O2,H3): 2.11
  d(O2,N2): 2.79
[1]
  d(CA1,C5): 3.12
  d(CA1,O1): 4.37
  d(CA1,O2): 4.66
  d(CA1,O4): 2.76
  d(H4,O1): 3.14
  d(H4,O2): 3.66
  d(O1,O2): 3.25
  d(O4,H2): 0.98
Table A6-1 pharmacophore angle
  a(C5, CA1, O1): 162.99
  a(CA1, O1, O2): 115.77
  a(CA1, O4, H2): 129.33
  a(O1, CA1, O4): 65.06
  a(O1, O2, H4): 123.59
Table A6-2 pharmacophore angle
  a(O1, O2, H3): 135.66
  a(O1, O2, N2): 146.15
  a(O2, N2, C2): 127.57
  a(O2, N2, CA2): 154.39
[3]
  Pharmacophore torsion angle a(C5, CA1, O1, H4): −7.66
  Pharmacophore torsion angle a(H4, O1, O2, H3): −157.30
  Pharmacophore torsion angle a(H4, O1, O2, N2): −162.99
  Pharmacophore torsion angle a(O1, H4, O2, CA1): −78.80
  Pharmacophore torsion angle a(O1, O2, N2, C2): 118.91
Table A7-2, between pharmacophore elements of the bound compound
  Pharmacophore torsion angle a(O1, O2, N2, CA2): 137.37
